# Measured values from publication PMC10536391, “Inhibition of the hERG Potassium Channel by a Methanesulphonate-Free E-4031 Analogue” (Pharmaceuticals, 2023).
# Assays:
# Type in all cases: cell-based
# [1] = target: T1, hERG potassium channel (human Ether-à-go-go Related Gene) (Homo sapiens, UniProt Q12809, T623A); assay: whole-cell patch-clamp, inward tail current in […] K+, […]; settings: read-out: % of control tail current at 300 nM
# T1 construct: gene KCNH2; T623A hERG transiently expressed in HEK 293 cells
# [2] = target: T2, hERG potassium channel (human Ether-à-go-go Related Gene) (Homo sapiens, UniProt Q12809, N588K); assay: whole-cell patch-clamp, single concentration […]; settings: read-out: % of control tail current at 300 nM
# T2 construct: gene KCNH2; N588K hERG transiently expressed in HEK 293 cells
# [3] = target: T3, hERG potassium channel (human Ether-à-go-go Related Gene) (Homo sapiens, UniProt Q12809); assay: whole-cell patch-clamp, hERG tail current, […] °C
# T3 construct: gene KCNH2; wild-type hERG stably expressed in HEK 293 cells
# [4] = target: T4, hERG potassium channel (human Ether-à-go-go Related Gene) (Homo sapiens, UniProt Q12809, S624A); assay: whole-cell patch-clamp, single concentration […]; settings: read-out: % of control tail current at 300 nM
# T4 construct: gene KCNH2; S624A hERG transiently expressed in HEK 293 cells
# [5] = target: T5, hERG potassium channel (human Ether-à-go-go Related Gene) (Homo sapiens, UniProt Q12809, F557L); assay: whole-cell patch-clamp, single concentration […]; settings: read-out: % of control tail current at 300 nM
# T5 construct: gene KCNH2; F557L hERG transiently expressed in HEK 293 cells
smiles,measurement,setting,value
Cc1ccc(C(=O)C2CCN(CCc3ccccc3)CC2)cc1 [E-4031-17],activity at 0.3 µM,[1],69.7%
same,activity at 0.3 µM,[2],43.2%
same,IC50,[3],40.3 nM
same,activity at 0.3 µM,[4],57.2%
same,activity at 0.3 µM,[5],57.9%
